Measured values: patent publication US10725043B2, “Three-dimensional fibroblast aggregate and in vitro 3D skin dermis model comprising same” (S-BIOMEDICS, priority 2015, dated 2020)

Assays:
MMP1 [1] = test: MMP1 secretion (ELISA) in two-dimensionally cultured, UVB-irradiated fibroblasts treated with MMP inhibitors; format: cell-based, human; conditions: for secreted amount of MMP1 relative to the control group: 2D fibroblasts, UVB 20 mJ/cm^2, 2 days, FIG. 17; for decrease of MMP1 in 2D cells in comparison with the 3D cell cluster: 2D UVB fibroblasts versus 3D cell cluster
Description: As a control group for the 3D fibroblast cluster and for the comparison of the inhibitory effect of MMP inhibitors using the two-dimensionally cultured fibroblasts, fibroblasts irradiated with ultraviolet B (UVB) were used. In detail, fibroblasts that were suspended in high-concentration glucose DMEM were seeded onto each well of a tissue culture treated 6-well plate at a concentration of 2.5×10^5 cells/cm^2, and then, cultured in a stationary incubator at a temperature of 37° C. for 1 day. Next, a washing process was performed thereon three times by using PBS, a serum-free MEM medium was added thereto, and the fibroblasts were cultured in a stationary incubator at a temperature of 37° C. for 1 hour. After a washing process was performed thereon three times by using PBS, to induce overexpression of MMP1, UVB (20 mJ/cm^2) was irradiated thereto. Following UV irradiation, the resulting fibroblasts were inoculated with various concentrations of retinoic acid (2, 10, 40 mM), abietic acid (20, 100, 400 mM), and TGF-b1 (1, 5, 20, ng/ml) that were diluted in a fibroblast growth medium (FGM, Lonza Company). The inoculated fibroblasts were then additionally cultured in a stationary incubator at a temperature of 37° C. for 2 days. The culture broth was recovered therefrom, and was subjected to measurement of secretion of MMP1. Through the measurement, the culture broth was quantified by using the ELISA kit (R&D Company), wherein a method of using the kit was proceeded according to the supplier's protocol.

MMP1 [2] = test: MMP1 secretion (ELISA) in 3D fibroblast cluster treated with MMP inhibitors; format: cell-based, human; conditions: retinoic acid 10 mM, abietic acid 100 mM, TGF-b1 5 ng/ml, cultured 2 and 4 days, FIG. 16
Description: To prepare an in vitro 3D artificial dermis model, fibroblasts were first cultured. In detail, human dermal fibroblasts were cultured in high glucose Dulbecco's modified Eagle's medium (DMEM, Welgene, Daegu, South Korea) by using a tissue culture flask under conditions of 37° C., 5% CO2, and 95% O2 atmosphere. Human dermal fibroblasts of 5 passages were used for all experiments.
The fibroblasts were seeded onto the culture container, thereby preparing a 3D fibroblast cluster. In detail, fibroblasts were seeded onto the 96-well NTCP containing fibroblast growth medium (FGM, Lonza) at a concentration of 1.25×10^5 cells/cm^2 per well, and cultured at a temperature of 37° C. The fibroblasts were cultured in a 2D manner on a surface of the culture container, and separated from the surface. Such separated or delocalized 2D fibroblast cluster was then continuously cultured while floating in the culture container, and within 24 hours, a 3D fibroblast cluster was formed spontaneously. The formed 3D fibroblast cluster was collected on the 1st day (Day 1), 3rd day (Day 3), and 5th day (Day 5) of the culture. […] Hereinafter, the 3D fibroblast cluster was represented by ‘3DCM’.
In detail, the 3D fibroblast cluster of the culture at Day 1 prepared according to Example 2(1) was inoculated with retinoic acid (10 mM), abietic acid (100 mM), transforming growth factor-b1 (TGF-b1) (5 ng/ml) that were diluted in a […] (FGM, Lonza Company). The inoculated 3D fibroblast cluster was then cultured in a stationary incubator at a temperature of 37° C. for 2 and 4 days, separately. The culture broth was recovered therefrom, and was subjected to measurement of secretion of MMP1. Through the measurement, the culture broth was quantified by using the ELISA kit (R&D Company), wherein a method of using the kit was proceeded according to the supplier's protocol.

[3] = retinoic acid 2, 10, TGF-b1 1, 5, 20 ng/ml

Row | Compound | secreted amount of MMP1 relative to the control group (MMP1 [1]; abietic acid 20 mM) | secreted amount of MMP1 relative to the control group (MMP1 [1]; abietic acid at least 100 mM) | secretion levels of MMP1 relative to the control group (MMP1 [2]) | decrease of MMP1 in 2D cells in comparison with the 3D cell cluster (MMP1 [1]) | secreted amount of MMP1 relative to the control group (MMP1 [1]; [3])
1 | CC(C)C1=CC2=CC[C@@H]3[C@](C)(CCC[C@@]3(C)C(=O)O)[C@H]2CC1 [abietic acid] | approximately reduced to half | about 2% | ~81% |  | 
2 | CC1=C(/C=C/C(C)=C/C=C/C(C)=C/C(=O)O)C(C)(C)CCC1 [retinoic acid] |  |  | about 80% | about 2.7 times | about 30%
3 | transforming growth factor-b1 [TGF-b1] |  |  | about 60% | 1.7 to 2.4 times | 25-35%
